Measurements reported in ChEMBL document CHEMBL5291721, “A preclinical secondary pharmacology resource illuminates target-adverse drug reaction associations of marketed drugs” (Nat Commun, 2023).

Key:
D(1A) dopamine receptor [1] = molecular target: T1, D(1A) dopamine receptor (Homo sapiens, UniProt P21728)
Substance-P receptor = Substance-P receptor (Homo sapiens, UniProt P25103)
[2] = molecular target: T2, Alpha-2A adrenergic receptor (Homo sapiens, UniProt P08913)
T2 sequence (P08913 whole entry): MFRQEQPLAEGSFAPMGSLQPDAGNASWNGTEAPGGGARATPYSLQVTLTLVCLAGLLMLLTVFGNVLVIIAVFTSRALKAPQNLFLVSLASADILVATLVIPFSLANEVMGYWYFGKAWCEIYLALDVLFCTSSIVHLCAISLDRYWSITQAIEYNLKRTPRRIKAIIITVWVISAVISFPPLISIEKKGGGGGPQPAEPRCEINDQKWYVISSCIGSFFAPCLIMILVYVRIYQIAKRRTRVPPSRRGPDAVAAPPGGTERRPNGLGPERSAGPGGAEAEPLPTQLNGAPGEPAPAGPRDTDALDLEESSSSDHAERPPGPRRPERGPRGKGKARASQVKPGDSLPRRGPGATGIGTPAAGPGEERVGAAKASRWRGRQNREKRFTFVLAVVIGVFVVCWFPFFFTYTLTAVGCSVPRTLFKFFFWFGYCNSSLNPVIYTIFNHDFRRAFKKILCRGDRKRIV

[3] = molecular target: 5-hydroxytryptamine receptor 2B (Homo sapiens, UniProt P41595)
D(1A) dopamine receptor [4] = molecular target: T1, D(1A) dopamine receptor; remark: listed apart in the source
[5] = molecular target: Sodium channel protein type 5 subunit alpha (Homo sapiens, UniProt Q14524); assay type: functional, cell-based
Estrogen receptor [6] = molecular target: T3, Estrogen receptor (Homo sapiens, UniProt P03372); assay type: functional
T3 sequence (P03372 whole entry): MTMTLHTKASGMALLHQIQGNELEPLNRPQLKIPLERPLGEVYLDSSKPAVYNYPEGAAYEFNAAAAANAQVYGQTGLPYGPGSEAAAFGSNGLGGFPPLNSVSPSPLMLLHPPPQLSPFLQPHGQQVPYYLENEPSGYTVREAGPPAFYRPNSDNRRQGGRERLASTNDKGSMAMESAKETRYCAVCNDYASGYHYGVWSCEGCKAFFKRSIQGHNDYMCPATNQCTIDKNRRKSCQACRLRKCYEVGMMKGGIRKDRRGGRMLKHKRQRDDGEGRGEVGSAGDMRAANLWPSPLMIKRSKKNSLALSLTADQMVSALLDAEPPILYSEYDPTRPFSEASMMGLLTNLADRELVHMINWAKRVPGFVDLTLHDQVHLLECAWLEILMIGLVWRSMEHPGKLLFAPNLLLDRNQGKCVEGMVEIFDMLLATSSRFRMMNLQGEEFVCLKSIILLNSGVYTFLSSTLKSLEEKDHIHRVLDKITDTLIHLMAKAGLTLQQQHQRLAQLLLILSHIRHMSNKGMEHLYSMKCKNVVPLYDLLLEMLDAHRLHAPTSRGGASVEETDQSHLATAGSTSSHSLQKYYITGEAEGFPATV

Glucocorticoid receptor [7] = molecular target: T4, Glucocorticoid receptor (Homo sapiens, UniProt P04150); assay type: functional
T4 sequence (P04150 whole entry): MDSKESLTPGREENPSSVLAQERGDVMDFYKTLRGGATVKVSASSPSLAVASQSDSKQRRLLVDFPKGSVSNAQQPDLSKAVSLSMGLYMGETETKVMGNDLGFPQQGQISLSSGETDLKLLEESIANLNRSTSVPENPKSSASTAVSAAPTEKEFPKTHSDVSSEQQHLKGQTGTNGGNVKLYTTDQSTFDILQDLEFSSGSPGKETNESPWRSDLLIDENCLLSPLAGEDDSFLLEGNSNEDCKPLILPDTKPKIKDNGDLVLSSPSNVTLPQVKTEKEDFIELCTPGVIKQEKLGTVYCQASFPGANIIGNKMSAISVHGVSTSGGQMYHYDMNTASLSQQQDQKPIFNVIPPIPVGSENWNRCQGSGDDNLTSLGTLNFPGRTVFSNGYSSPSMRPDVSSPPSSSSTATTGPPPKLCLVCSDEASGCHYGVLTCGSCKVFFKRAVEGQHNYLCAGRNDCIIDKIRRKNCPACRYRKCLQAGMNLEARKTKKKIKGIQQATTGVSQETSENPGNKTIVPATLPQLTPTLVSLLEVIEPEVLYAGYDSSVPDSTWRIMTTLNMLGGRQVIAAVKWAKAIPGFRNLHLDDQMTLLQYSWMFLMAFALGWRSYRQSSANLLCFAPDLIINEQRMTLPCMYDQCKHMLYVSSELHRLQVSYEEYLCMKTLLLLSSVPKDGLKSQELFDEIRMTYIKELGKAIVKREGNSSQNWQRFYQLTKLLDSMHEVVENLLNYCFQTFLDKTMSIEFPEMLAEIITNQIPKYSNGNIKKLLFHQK

Estrogen receptor [8] = molecular target: T3, Estrogen receptor; assay type: functional; remark: listed apart in the source
Glucocorticoid receptor [9] = molecular target: T4, Glucocorticoid receptor; assay type: functional; remark: listed apart in the source
[10] = molecular target: 5-hydroxytryptamine receptor 6 (Homo sapiens, UniProt P50406)
[11] = molecular target: Synaptic vesicular amine transporter (Rattus norvegicus, UniProt Q01827); assay type: functional
Note: assay procedure not described here.

T1 sequence (P21728 whole entry): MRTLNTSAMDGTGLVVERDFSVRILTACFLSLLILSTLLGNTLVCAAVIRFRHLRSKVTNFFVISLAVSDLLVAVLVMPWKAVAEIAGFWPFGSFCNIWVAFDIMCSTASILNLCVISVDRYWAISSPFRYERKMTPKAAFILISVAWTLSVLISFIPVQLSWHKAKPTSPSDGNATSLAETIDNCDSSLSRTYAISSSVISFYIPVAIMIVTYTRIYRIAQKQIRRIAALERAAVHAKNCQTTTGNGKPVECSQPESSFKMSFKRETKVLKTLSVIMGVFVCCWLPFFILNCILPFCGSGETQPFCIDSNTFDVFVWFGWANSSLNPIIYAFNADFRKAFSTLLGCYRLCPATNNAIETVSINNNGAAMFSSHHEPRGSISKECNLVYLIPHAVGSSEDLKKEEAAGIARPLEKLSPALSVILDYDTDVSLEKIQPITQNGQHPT
Sequence of Synaptic vesicular amine transporter (Q01827 whole entry): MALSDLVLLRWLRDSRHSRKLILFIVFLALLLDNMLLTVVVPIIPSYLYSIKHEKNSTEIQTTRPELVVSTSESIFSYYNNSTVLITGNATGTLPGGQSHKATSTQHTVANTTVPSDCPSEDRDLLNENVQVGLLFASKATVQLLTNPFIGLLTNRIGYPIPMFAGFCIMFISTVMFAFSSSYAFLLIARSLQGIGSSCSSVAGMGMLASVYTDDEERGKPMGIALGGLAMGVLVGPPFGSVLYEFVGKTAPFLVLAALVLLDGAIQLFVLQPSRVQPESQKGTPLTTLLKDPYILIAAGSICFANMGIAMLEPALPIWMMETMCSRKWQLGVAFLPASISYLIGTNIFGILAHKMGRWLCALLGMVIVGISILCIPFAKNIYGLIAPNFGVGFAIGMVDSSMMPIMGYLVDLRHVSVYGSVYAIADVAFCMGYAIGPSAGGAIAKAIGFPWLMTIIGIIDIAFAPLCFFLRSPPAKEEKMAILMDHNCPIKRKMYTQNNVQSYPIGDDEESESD
Sequence of 5-hydroxytryptamine receptor 2B (P41595 whole entry): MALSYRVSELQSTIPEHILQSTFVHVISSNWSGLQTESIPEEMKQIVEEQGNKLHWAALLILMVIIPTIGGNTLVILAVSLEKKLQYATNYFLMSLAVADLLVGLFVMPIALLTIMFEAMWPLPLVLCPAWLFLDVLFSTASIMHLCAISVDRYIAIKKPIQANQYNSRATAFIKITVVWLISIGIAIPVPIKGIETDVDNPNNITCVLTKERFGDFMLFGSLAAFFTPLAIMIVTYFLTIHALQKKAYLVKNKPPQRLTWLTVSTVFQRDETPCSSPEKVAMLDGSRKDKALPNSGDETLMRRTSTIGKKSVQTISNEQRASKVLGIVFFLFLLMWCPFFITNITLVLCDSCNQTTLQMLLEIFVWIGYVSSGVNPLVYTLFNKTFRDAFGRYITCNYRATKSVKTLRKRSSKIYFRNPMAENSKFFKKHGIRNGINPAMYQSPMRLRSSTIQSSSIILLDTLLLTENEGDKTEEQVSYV
Sequence of Substance-P receptor (P25103 whole entry): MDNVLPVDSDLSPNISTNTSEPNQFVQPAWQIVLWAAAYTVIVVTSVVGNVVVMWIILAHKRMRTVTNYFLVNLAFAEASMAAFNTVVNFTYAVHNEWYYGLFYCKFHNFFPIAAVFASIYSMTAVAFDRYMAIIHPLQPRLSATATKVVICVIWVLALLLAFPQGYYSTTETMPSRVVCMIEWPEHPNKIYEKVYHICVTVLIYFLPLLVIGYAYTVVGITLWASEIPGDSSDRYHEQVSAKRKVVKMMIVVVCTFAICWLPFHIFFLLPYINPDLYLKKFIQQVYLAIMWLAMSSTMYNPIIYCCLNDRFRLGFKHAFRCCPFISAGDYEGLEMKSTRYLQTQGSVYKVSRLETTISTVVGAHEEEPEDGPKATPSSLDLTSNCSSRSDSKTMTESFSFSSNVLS
Sequence of Sodium channel protein type 5 subunit alpha (Q14524 whole entry): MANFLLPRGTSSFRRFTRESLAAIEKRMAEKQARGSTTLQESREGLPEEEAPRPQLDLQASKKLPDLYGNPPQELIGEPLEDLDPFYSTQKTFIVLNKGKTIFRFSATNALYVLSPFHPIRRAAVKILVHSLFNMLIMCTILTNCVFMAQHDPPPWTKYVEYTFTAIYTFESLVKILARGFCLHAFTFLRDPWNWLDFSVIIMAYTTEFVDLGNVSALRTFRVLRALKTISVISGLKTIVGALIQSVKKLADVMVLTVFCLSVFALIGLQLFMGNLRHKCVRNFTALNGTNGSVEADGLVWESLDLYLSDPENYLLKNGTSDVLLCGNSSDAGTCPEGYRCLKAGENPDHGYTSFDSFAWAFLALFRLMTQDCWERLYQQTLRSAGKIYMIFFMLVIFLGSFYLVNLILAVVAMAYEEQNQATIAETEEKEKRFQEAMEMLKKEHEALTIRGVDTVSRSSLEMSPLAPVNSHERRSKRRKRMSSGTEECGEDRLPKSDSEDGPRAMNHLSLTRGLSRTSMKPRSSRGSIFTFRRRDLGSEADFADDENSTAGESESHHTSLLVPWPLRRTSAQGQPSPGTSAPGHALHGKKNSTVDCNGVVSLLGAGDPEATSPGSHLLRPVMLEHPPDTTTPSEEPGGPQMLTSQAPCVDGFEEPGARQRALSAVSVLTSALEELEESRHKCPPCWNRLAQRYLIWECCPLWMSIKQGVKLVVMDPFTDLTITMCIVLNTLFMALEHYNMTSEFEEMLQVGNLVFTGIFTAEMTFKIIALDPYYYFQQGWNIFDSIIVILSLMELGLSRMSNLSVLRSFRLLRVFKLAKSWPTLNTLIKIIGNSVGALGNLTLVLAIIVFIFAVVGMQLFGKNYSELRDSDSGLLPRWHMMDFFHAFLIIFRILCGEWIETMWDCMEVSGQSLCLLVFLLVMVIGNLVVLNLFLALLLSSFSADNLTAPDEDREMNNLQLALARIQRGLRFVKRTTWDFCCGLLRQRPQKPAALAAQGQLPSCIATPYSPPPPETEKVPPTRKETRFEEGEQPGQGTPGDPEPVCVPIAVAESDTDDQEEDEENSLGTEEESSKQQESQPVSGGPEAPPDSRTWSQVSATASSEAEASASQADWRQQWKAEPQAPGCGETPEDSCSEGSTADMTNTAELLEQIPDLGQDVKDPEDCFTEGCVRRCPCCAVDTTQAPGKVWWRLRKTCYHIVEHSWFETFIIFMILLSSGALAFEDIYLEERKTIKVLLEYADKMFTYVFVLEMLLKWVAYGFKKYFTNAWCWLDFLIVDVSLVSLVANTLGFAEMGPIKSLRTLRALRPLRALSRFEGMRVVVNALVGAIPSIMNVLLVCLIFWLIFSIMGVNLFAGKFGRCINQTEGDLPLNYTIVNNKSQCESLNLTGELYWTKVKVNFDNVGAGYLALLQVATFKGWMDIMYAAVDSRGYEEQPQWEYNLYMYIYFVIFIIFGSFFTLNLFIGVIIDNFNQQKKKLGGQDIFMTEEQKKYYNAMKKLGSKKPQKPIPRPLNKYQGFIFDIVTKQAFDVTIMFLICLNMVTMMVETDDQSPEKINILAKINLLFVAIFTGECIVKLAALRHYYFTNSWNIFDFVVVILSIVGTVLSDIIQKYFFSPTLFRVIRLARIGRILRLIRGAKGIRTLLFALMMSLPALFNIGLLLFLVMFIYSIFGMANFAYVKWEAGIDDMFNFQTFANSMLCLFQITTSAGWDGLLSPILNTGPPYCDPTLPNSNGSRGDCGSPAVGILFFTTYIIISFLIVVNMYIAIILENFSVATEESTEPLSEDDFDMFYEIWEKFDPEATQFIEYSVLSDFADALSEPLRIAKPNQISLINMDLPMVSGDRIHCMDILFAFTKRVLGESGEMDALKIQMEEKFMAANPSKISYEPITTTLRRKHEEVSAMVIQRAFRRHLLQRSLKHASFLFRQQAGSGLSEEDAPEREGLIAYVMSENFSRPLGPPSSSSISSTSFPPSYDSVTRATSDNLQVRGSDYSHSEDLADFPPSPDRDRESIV
Sequence of 5-hydroxytryptamine receptor 6 (P50406 whole entry): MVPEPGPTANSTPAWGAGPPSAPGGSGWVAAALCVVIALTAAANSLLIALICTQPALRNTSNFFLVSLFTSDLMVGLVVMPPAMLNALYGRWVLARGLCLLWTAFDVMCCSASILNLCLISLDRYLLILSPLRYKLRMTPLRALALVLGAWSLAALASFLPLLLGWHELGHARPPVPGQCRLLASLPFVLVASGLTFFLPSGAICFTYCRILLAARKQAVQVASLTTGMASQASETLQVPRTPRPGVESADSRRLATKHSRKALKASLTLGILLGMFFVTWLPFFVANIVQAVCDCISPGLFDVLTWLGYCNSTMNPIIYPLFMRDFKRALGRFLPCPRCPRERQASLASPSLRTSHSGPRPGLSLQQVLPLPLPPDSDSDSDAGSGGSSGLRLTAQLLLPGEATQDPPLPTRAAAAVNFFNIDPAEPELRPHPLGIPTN

| Compound | AC50 (D(1A) dopamine receptor [1]) [µM] | AC50 (Substance-P receptor) [µM] | AC50 [2] [µM] | AC50 [3] [µM] | other results |
| --- | --- | --- | --- | --- | --- |
| Cc1ccc(C)c(OCCCC(C)(C)C(=O)O)c1 [GEMFIBROZIL] | > 10 | > 10 | > 10 | > 10 | – |
| C#C[C@]1(O)C=C[C@H]2[C@@H]3CCC4=CC(=O)CC[C@@H]4[C@H]3CC[C@@]21CC [GESTODENE] | – | – | – | – | AC50 (D(1A) dopamine receptor [4]): > 30 µM |
| CCCCCCCN(CC)CCCC(O)c1ccc(NS(C)(=O)=O)cc1 (stereo not given) [IBUTILIDE] | – | – | – | – | AC50 [5]: > 30 µM |
| COc1cc(C(C)=O)ccc1OCCCN1CCC(c2noc3cc(F)ccc23)CC1 [ILOPERIDONE] | 0.0684 | > 10 | 0.176 | – | AC50 (Estrogen receptor [6]): > 30 µM; AC50 (Glucocorticoid receptor [7]): > 30 µM; AC50 (Estrogen receptor [8]): > 30 µM; AC50 (Glucocorticoid receptor [9]): > 30 µM; AC50 [10]: 0.257 µM |
| CC[C@H](C)C(=O)O[C@H]1C[C@@H](C)C=C2C=C[C@H](C)[C@H](CC[C@@H]3C[C@@H](O)CC(=O)O3)[C@H]21 [LOVASTATIN] | > 10 | > 10 | > 10 | > 10 | AC50 [5]: > 30 µM |
| CC[C@@H](CO)NC(=O)[C@@H]1C=C2c3cccc4c3c(cn4C)C[C@H]2N(C)C1 [METHYSERGIDE] | – | – | 2.42 | – | – |
| CN1Cc2c(N)cccc2C(c2ccccc2)C1 (stereo not given) [NOMIFENSINE] | – | – | – | – | AC50 [11]: 28.8 µM |
| C=CC(=O)Nc1cccc(Oc2nc(Nc3ccc(N4CCN(C)CC4)cc3)nc3ccsc23)c1 [OLMUTINIB] | – | – | – | – | AC50 [11]: 0.44 µM |
| CC(CN1c2ccccc2Sc2ccccc21)N(C)C (stereo not given) [PROMETHAZINE] | 3.38 | > 10 | – | 0.0679 | AC50 (D(1A) dopamine receptor [4]): > 30 µM |
| CN(CCOc1ccc(CC2SC(=O)NC2=O)cc1)c1ccccn1 (stereo not given) [ROSIGLITAZONE] | > 10 | > 10 | > 30 | > 10 | AC50 [5]: > 30 µM; AC50 [10]: > 10 µM |
| Cc1ccccc1C(=O)Nc1ccc(C(=O)N2CCCC(O)c3cc(Cl)ccc32)c(C)c1 (stereo not given) [TOLVAPTAN] | – | – | – | – | AC50 [11]: > 30 µM |
| C[C@]12C=CC(=O)C=C1CC[C@H]1[C@@H]3C[C@@H](O)[C@](O)(C(=O)CO)[C@@]3(C)C[C@H](O)[C@@]12F [TRIAMCINOLONE] | – | – | – | – | AC50 (Glucocorticoid receptor [7]): 1.2 µM; AC50 (Glucocorticoid receptor [9]): > 30 µM |
| CC(C)C[C@H](NC(=O)[C@@H](O)[C@H](N)Cc1ccccc1)C(=O)O [UBENIMEX] | – | – | – | – | AC50 (D(1A) dopamine receptor [4]): > 30 µM |
| CC(C)[C@H](N)C(=O)OCCOCn1cnc2c(=O)[nH]c(N)nc21 [VALACYCLOVIR] | > 10 | > 10 | > 10 | > 10 | – |
| COc1cc(C(=O)NS(=O)(=O)c2ccccc2C)ccc1Cc1cn(C)c2ccc(NC(=O)OC3CCCC3)cc12 [ZAFIRLUKAST] | – | – | – | – | AC50 (Glucocorticoid receptor [7]): > 30 µM; AC50 (Glucocorticoid receptor [9]): > 30 µM |
| O=C1Cc2cc(CCN3CCN(c4nsc5ccccc45)CC3)c(Cl)cc2N1 [ZIPRASIDONE] | – | – | – | 0.0137 | AC50 [11]: 0.0035 µM; AC50 [5]: > 50 µM |
